“Also recorded” adds a separate entry of the source.
Experiments:
[1] = tested on: free cholesterol storage and abnormal lipid endocytosis; conditions: cited from earlier work
RAW mouse macrophages [2] = assay: BODIPY-LacCer transport in RAW cells treated with AY9944; format: cell-based
Description: (§1) RAW mouse macrophages grown in medium supplemented with LPDS for 5 days to elevate endogenous cholesterol biosynthesis were treated with […] AY9944 in medium supplemented with lipoprotein deficient serum (LPDS) for a further 5 or 10 days to induce storage of 7-DHC. […] This correlated with abnormal transport of a fluorescent GSL analogue of lactosylceramide (LacCer)—BODIPY-LacCer.
(§2) FIG. 4 consists of micrographs which together show the induction of an NPC phenotype in cholesterol null RAW cells. All RAW cells were grown in medium supplemented with LPDS for 5 days (controls) to reduce exogenously derived cholesterol prior to addition of 1 μM AY9944 to inhibit endogenous cholesterol synthesis for a further 5 days or 10 days (as indicated). Alterations in sphingolipid trafficking were measured in live cells using BODIPY-LacCer (lower panels), cholesterol levels in fixed cells were measured with filipin (upper panels). Endocytic cholesterol storage in cholesterol depleted cells was induced by growth in medium supplemented with 10% FCS for a further 24 h. For each condition n=2, images are representative of at least 10 captured fields, scale bar=5 μm.

[3] = biological target: T1, 3β-hydroxysterol Δ7-reductase (Mus musculus, UniProt O88455); conditions: cited from earlier work
T1 construct: RAW mouse macrophages grown in medium supplemented with LPDS for 5 days to elevate endogenous cholesterol biosynthesis; endogenous in cells; host or cells: RAW mouse macrophages
T1 sequence (O88455 1-471): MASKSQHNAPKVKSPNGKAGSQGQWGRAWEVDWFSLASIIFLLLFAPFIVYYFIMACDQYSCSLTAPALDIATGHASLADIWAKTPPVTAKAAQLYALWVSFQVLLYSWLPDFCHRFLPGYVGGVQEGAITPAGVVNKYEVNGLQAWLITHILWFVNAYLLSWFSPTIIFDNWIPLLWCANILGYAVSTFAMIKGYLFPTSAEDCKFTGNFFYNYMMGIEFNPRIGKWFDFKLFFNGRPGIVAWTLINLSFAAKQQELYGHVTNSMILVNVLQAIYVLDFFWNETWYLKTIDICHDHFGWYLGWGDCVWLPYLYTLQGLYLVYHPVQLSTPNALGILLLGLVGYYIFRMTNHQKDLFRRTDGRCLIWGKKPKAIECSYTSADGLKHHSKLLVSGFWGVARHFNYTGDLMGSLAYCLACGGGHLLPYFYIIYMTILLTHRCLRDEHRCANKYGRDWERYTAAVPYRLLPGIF

RAW mouse macrophages [4] = assay: Cholesterol levels (filipin) in RAW cells treated with AY9944; format: cell-based; conditions: for cholesterol levels (filipin): 1 mM AY9944 in LPDS medium
Description: as §1, §2

[5] = interim data after 12 months of a 2-year trial; cited from earlier work
[6] = tested on: NPC1 null (CT43) CHO cells; conditions: NB-DNJ treatment; cited from earlier work
[7] = tested on: NPC1 null (CT43) CHO cells; conditions: NB-DNJ treatment; cited from earlier work; remark: listed apart in the source
[8] = tested on: peripheral blood B lymphocytes; conditions: NPC patient, B cells over 6 months; cited from earlier work
GSL levels = conditions: mice; cited from earlier work
mammalian cells = conditions: liposomes of dioleoylphosphatidylethanolamine and cholesteryl hemisuccinate; cited from earlier work
[9] = cited from earlier work
sialyltransferase = conditions: cited from earlier work
[10] = biological target: T2, human α-1,3-fucosyltransferase V (Homo sapiens, UniProt Q11128); conditions: in the presence of guanosine diphosphate (GDP); cited from earlier work
T2 sequence (Q11128 1-374): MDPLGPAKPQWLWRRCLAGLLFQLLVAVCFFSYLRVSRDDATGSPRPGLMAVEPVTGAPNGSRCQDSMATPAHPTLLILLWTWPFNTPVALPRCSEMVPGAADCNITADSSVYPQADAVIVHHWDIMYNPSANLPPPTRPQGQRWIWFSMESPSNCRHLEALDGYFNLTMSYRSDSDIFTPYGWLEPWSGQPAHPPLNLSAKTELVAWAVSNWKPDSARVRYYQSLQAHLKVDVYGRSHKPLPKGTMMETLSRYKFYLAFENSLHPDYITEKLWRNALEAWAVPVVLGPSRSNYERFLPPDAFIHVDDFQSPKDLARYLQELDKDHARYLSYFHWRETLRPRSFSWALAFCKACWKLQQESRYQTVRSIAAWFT

rat recombinant α-2,6-ST = biological target: T3, rat recombinant α-2,6-ST (Rattus norvegicus, UniProt P13721); conditions: rat recombinant enzyme; read-out: IC(50), α-2,6-ST; cited from earlier work
T3 sequence (P13721 1-403): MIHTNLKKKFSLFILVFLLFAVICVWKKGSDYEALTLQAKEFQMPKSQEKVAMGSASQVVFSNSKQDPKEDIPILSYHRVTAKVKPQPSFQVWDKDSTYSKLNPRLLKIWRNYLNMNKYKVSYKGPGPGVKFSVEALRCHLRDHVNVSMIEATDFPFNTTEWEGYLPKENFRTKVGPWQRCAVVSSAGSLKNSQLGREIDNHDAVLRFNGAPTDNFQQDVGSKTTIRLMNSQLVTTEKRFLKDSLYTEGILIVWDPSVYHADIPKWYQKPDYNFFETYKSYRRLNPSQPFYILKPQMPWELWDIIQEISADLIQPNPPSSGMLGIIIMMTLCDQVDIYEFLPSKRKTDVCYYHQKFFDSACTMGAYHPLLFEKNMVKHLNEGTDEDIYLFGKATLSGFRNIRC

rat recombinant α-2,3-ST = conditions: rat recombinant enzyme; read-out: IC(50), α-2,3-ST; cited from earlier work

CC(C)CCC[C@@H](C)[C@H]1CC[C@H]2[C@@H]3C(=O)C=C4C[C@@H](O)CC[C@]4(C)[C@H]3CC[C@]12C [7-ketocholesterol]
free cholesterol storage and lipid endocytosis [1]: induce free cholesterol storage and abnormal lipid endocytosis

Clc1ccccc1CNCC1CCC(CNCc2ccccc2Cl)CC1 (centres unmarked) [AY9944]
BODIPY-LacCer transport (RAW mouse macrophages [2]; 5 days post AY9944, 30 min pulse, 90 min chase): transported to the Golgi | BODIPY-LacCer transport (RAW mouse macrophages [2]; 10 days post AY9944): trapped in punctate LE/Lys | 7-DHC level [3]: accumulation of 7-DHC | cholesterol levels (filipin) (RAW mouse macrophages [4]; 5 days): slight decrease in cholesterol levels | cholesterol levels (filipin) (RAW mouse macrophages [4]; 10 days): markedly reduced | localisation of exogenously derived cholesterol (RAW mouse macrophages [4]; 10 day AY9944, then medium with 10% FCS): exogenously derived cholesterol became trapped in punctate LE

CCN(CC)CCO[C@H]1CC[C@@]2(C)C(=CC[C@@H]3[C@@H]2CC[C@]2(C)C(=O)CC[C@@H]32)C1 [Compound U18666A]
free cholesterol storage and lipid endocytosis [1]: induce free cholesterol storage and abnormal lipid endocytosis | induction of NPC1 phenotype [1]: can induce an NPC1 phenotype

CCCCN1C[C@H](O)[C@@H](O)[C@H](O)[C@H]1CO [NB-DNJ, N-butyldeoxynojirimycin]
clinical benefit, saccadic eye movement [5]: stabilization or improvement in saccadic eye movement | GSL storage in NPC1 cells [6]: reduction in GSL storage in the endo/lysosomal system; also recorded: lowers GSL storage in NPC1 cells to control levels | endocytosis in NPC1 cells [7]: corrects abnormal endocytosis | endosomal uptake [8]: improved endosomal uptake | lipid trafficking in peripheral blood B lymphocytes [8]: greatly improved | pathological lipid storage [8]: reduced | total late endosomal/lysosomal compartment [8]: almost normalised | decrease in GSL levels (onset) (GSL levels): measurable decrease in GSL levels within a day of treatment | treatment time after which effect on GSL levels stabilizes (GSL levels): 10 days | factor by which liposomes reduced the required dose (mammalian cells): 1000 | neurological side effects ([9]; adult mice): not to cause neurological side effects | CNS penetration ([9]; mouse, in vivo): penetrate the CNS | effects on behaviour or CNS development ([9]; mouse, in vivo): without significant effects on behaviour or CNS development

C[C@@H]1O[C@@H](O[C@H]2[C@H](O[C@H]3[C@H](O[C@H]4CC[C@@]5(C)[C@@H](CC[C@]6(C)[C@@H]5CC=C5[C@@H]7CC(C)(C)C[C@@H](O)[C@]7(C)CC[C@]56C)[C@@]4(C)CO)O[C@H](C(=O)O)[C@@H](O)[C@@H]3O)O[C@H](CO)[C@H](O)[C@@H]2O)[C@H](O)[C@H](O)[C@H]1O [Soyasaponin I]
sialyltransferase inhibition (sialyltransferase): potent and specific sialyltransferase inhibitor

CN(C)CCCN1c2ccccc2CCc2ccccc21 [imipramine]
free cholesterol storage and lipid endocytosis [1]: induce free cholesterol storage and abnormal lipid endocytosis

CC(=O)[C@H]1CC[C@H]2[C@@H]3CCC4=CC(=O)CC[C@]4(C)[C@H]3CC[C@]12C [progesterone]
free cholesterol storage and lipid endocytosis [1]: induce free cholesterol storage and abnormal lipid endocytosis | induction of NPC1 phenotype [1]: can induce an NPC1 phenotype

CCCO[C@H]1O[C@H](CO)[C@@H](O[C@@H]2O[C@H](CO)[C@H](O)[C@H](O)[C@H]2O)[C@H](OCCN2C(C)C(O)C(O)C(O)C2CO)[C@H]1NC(C)=O (stereo partly drawn) [propyl 2-acetamido-2-deoxy-4-O-(β-D-galactopyranosyl)-3-O-(2-(N-(β-L-homofuconojirimycinyl))ethyl)-α-D-glucopyranoside]
inhibition of human α-1,3-fucosyltransferase V [10]: effective inhibitor

cytidin-5′-yl sialylethylphosphonate
IC50 (rat recombinant α-2,6-ST): 340 µM | IC50 (rat recombinant α-2,3-ST): 47 µM

— patent publication US8557844B2, “Substrate reduction therapy” (The Chancellor, Masters and Scholars of the University of …, priority 2007, dated 2013)
